Laboratory results: ChEMBL document CHEMBL3392960, “Discovery of thienoimidazole-based HCV NS5A inhibitors. Part 1: C2-symmetric inhibitors with diyne and biphenyl linkers” (Bioorg Med Chem Lett, 2015)

Assays:
Hepatitis C virus [1] = test: Antiviral activity against Hepatitis C virus genotype 1b infected in human Huh-5.2 cells assessed as decrease in HCV replicon RNA replication after 4 days by luciferase assay; assay type: functional, cell-based, Hepacivirus hominis; details: Huh-5-2, 96 h
[2] = Cytotoxicity against human HuhET cells by [3H]thymidine incorporation assay; assay type: cell-based
Hepatitis C virus [3] = test: Antiviral activity against Hepatitis C virus genotype 1a infected in W11.8 cells assessed as decrease in NS5A expression in replicon cell after 4 days by luminescence based ELISA; assay type: functional, Hepacivirus hominis; details: subtype 1a, W11.8, 96 h
[4] = Half life in iv dosed Sprague-Dawley rat; assay type: ADME, organism-based; details: in vivo
[5] = Clearance in iv dosed Sprague-Dawley rat; assay type: ADME, organism-based; details: in vivo
[6] = Volume of distribution at steady state in iv dosed Sprague-Dawley rat; assay type: ADME, organism-based; details: in vivo, read-out: Vdss

Row | Compound | EC50 (Hepatitis C virus [1]) [nM] | CC50 [2] [nM] | EC50 (Hepatitis C virus [3]) [nM] | half-life [4] [h] | clearance [5] [mL/min/kg] | Vd [6] [L/kg]
1 | COC(=O)N[C@H](C(=O)N1C[C@@H](C)C[C@H]1c1nc2sc(C#CC#Cc3cc4[nH]c([C@@H]5C[C@H](C)CN5C(=O)[C@@H](NC(=O)OC)C(C)C)nc4s3)cc2[nH]1)C(C)C | 0.17 | > 20000 | 184 |  |  | 
2 | COC(=O)N[C@H](C(=O)N1CCC[C@H]1c1nc2sc(C#CC#Cc3cc4[nH]c([C@@H]5CCCN5C(=O)[C@@H](NC(=O)OC)C(C)C)nc4s3)cc2[nH]1)C(C)C | 0.386 | 6100 | 281 | 5.2 | 8.2 | 3.3
3 | COC(=O)N[C@H](C(=O)N1C[C@@H](C)C[C@H]1c1nc2sc(-c3ccc(-c4ccc(-c5cc6[nH]c([C@@H]7C[C@H](C)CN7C(=O)[C@@H](NC(=O)OC)C(C)C)nc6s5)cc4)cc3)cc2[nH]1)C(C)C | 0.006 | > 20000 | 6 | 4.5 | 8 | 2.2
